Some test systems named below: KM12; RXF 393; TK-10; OVCAR-3; SR; OVCAR-8; SNB-75; SF-539; SK-OV-3; SF-295; CCRF-CEM; SNB-19; OVCAR-5; A498; HT-29; PC-3; RPMI-8226; DU-145; U-251; MDA-N.
What all share (test): NCI tumour cell line growth inhibition, 48 h

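Briefly, cells in 96-well plates were exposed to five compound concentrations for 48 h, and endpoints were estimated by linear interpolation. GI50: concentration for 50% inhibition of growth.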 Active and inactive are the calls of the source. No stated cut-off is given here; in the data, active = GI50 up to about 1.1 µM and inactive = higher. Non-standard residues stand in square brackets, D forms with d. Residues, ends and D or L forms follow the SMILES beside them. Ava = NCCCCC(=O)O; Mpa = O=C(O)CCS

Consider `CC(NC(=O)CCS)C(=O)NC(C)C(=O)NC(Cc1c[nH]c2ccccc12)C(=O)NC(Cc1c[nH]cn1)C(=O)NC(CO)C(=O)NC(Cc1c[nH]c2ccccc12)C(=O)NCCCCC(=O)NC(C)C(=O)NC(CCC(N)=O)C(=O)NC(CCCCN)C(=O)NC(C)C(=O)NC(CCCNC(=N)N)C(=O)NC(CCCCN)C(N)=O` (stereo not given) ([Mpa]AAWHSW[Ava]AQKARK-NH2; configuration not given here), for which the GI50 is 26.2 µM (inactive) in the experiment with KM12; > 100 µM (inactive) in the experiment on RXF 393; > 100 µM (inactive) in the experiment with TK-10; > 100 µM (inactive) in the experiment on OVCAR-3; 87.5 µM (inactive) in the experiment with SR; 90.2 µM (inactive) with OVCAR-8. Moreover, the GI50 is > 100 µM (inactive) in the experiment with SNB-75; > 100 µM (inactive) in the experiment with SF-539; > 100 µM (inactive) with SK-OV-3; > 100 µM (inactive) in the experiment on SF-295; 79.4 µM (inactive) in the experiment with CCRF-CEM; > 100 µM (inactive) with SNB-19. Moreover, the GI50 in the experiment with OVCAR-5 was > 100 µM (inactive); with A498, > 100 µM (inactive); in the experiment on HT-29, > 100 µM (inactive); with PC-3, > 100 µM (inactive); in the experiment with RPMI-8226, > 100 µM (inactive); in the experiment on DU-145, 87.9 µM (inactive). For the same compound, the figures for the GI50 in the experiment on U-251 and with MDA-N were 43.2 µM (inactive) and 54.2 µM (inactive), respectively.
For the compound `CCOC(=O)CCC(C(=O)OCC)n1nc2ccc(Nc3c(C)[n+]([O-])c4cc(Cl)ccc4[n+]3[O-])cc2n1` (stereo not given), the GI50 with KM12 is > 100 µM (inactive); in the experiment on RXF 393 it was 30.8 µM (inactive); in the experiment with TK-10 it was > 100 µM (inactive); in the experiment on OVCAR-3, > 100 µM (inactive); in the experiment with SR it was 10.1 µM (inactive); in the experiment with OVCAR-8, > 100 µM (inactive). For the same compound, the GI50 in the experiment with SNB-75 was > 100 µM (inactive); with SF-539, > 100 µM (inactive); in the experiment with SK-OV-3, > 100 µM (inactive); with SF-295, 82.4 µM (inactive); with CCRF-CEM it was 49.3 µM (inactive); in the experiment with SNB-19 it was > 100 µM (inactive). Also, the GI50 in the experiment on OVCAR-5 was > 100 µM (inactive); in the experiment on A498, > 100 µM (inactive); in the experiment with HT-29 it was 64.9 µM (inactive); in the experiment on PC-3, 76.7 µM (inactive); with RPMI-8226, 19.5 µM (inactive); in the experiment with DU-145, > 100 µM (inactive). Further, the GI50 in the experiment with U-251 is > 100 µM (inactive); with MDA-N, 98.4 µM (inactive).
Take `CN(N)/N=N/c1[nH]cnc1C(N)=O`: the GI50 with KM12 was 23.7 µM (inactive); in the experiment with RXF 393, > 100 µM (inactive); in the experiment on TK-10, 7.67 µM (inactive); in the experiment on OVCAR-3, 17.5 µM (inactive); in the experiment on SR, 0.352 µM (active); in the experiment with OVCAR-8, 3.14 µM (inactive). Also, the GI50 is 4.66 µM (inactive) with SNB-75; 13.7 µM (inactive) with SF-539; 3.33 µM (inactive) in the experiment with SK-OV-3; 6.14 µM (inactive) in the experiment with SF-295; 2.72 µM (inactive) with CCRF-CEM; > 100 µM (inactive) in the experiment on SNB-19. Also, the GI50 is > 89.7 µM (inactive) in the experiment on OVCAR-5; 39.1 µM (inactive) in the experiment with A498; 99.8 µM (inactive) in the experiment with HT-29; 15.3 µM (inactive) in the experiment with PC-3; 3.36 µM (inactive) with RPMI-8226; 5.57 µM (inactive) with DU-145. In addition, the results for the GI50 in the experiment on U-251 and in the experiment with MDA-N were > 66.1 µM (inactive) and 13.4 µM (inactive), respectively.
In the case of `Cc1ccc(Cl)c2c1NC(=O)/C2=N\Nc1ccccc1[N+](=O)[O-]`, the GI50 in the experiment with KM12 is 23.8 µM (inactive); in the experiment with RXF 393, > 100 µM (inactive); in the experiment on TK-10 it was > 100 µM (inactive); in the experiment on OVCAR-3 it was 27.3 µM (inactive); in the experiment with SR, 8.22 µM (inactive); in the experiment on OVCAR-8 it was 39.7 µM (inactive). Besides, the GI50 is 54.5 µM (inactive) in the experiment on SNB-75; 21.3 µM (inactive) with SF-539; > 100 µM (inactive) in the experiment on SK-OV-3; 24.1 µM (inactive) with SF-295; 24.5 µM (inactive) with CCRF-CEM; 68.4 µM (inactive) in the experiment with SNB-19. The GI50 is > 100 µM (inactive) with OVCAR-5; > 100 µM (inactive) in the experiment on A498; 35.8 µM (inactive) in the experiment with HT-29; 27.7 µM (inactive) in the experiment on PC-3; 52.8 µM (inactive) in the experiment with RPMI-8226; 47.1 µM (inactive) in the experiment with DU-145. Moreover, the GI50 in the experiment with U-251 was 31.6 µM (inactive); in the experiment on MDA-N, 39.4 µM (inactive).
In the case of `COc1ccc(N2C(=O)/C(=C/c3ccc(N(CCC#N)CCC#N)cc3C)N=C2c2cc([N+](=O)[O-])ccc2Cl)cc1`, the GI50 in the experiment on KM12 is 6.52 µM (inactive); with RXF 393, 4.61 µM (inactive); in the experiment on TK-10 it was 21.6 µM (inactive); with OVCAR-3 it was 3.35 µM (inactive); in the experiment with SR, 3.24 µM (inactive); in the experiment with OVCAR-8, 5.33 µM (inactive). Further, the GI50 in the experiment on SNB-75 was 3.3 µM (inactive); with SF-539, 3.37 µM (inactive); in the experiment on SK-OV-3 it was 4.54 µM (inactive); in the experiment with SF-295 it was 3.05 µM (inactive); in the experiment on CCRF-CEM, 3.77 µM (inactive); with SNB-19 it was 8.13 µM (inactive). For the same compound, the GI50 in the experiment with OVCAR-5 is 25.4 µM (inactive); with A498, 5.41 µM (inactive); in the experiment with HT-29, 4.07 µM (inactive); with PC-3, 4.7 µM (inactive); with RPMI-8226, 4.18 µM (inactive); with DU-145 it was 6.34 µM (inactive). Besides, the GI50 in the experiment on U-251 is 4.42 µM (inactive); in the experiment on MDA-N it was 1.56 µM (inactive).
`Oc1c2c(c(O)c3ccccc13)C1(N=N2)c2ccccc2Oc2ccccc21`: the GI50 was 15.4 µM (inactive) in the experiment with KM12; 1.98 µM (inactive) in the experiment on RXF 393; 6.98 µM (inactive) in the experiment with TK-10; 3.01 µM (inactive) in the experiment on OVCAR-3; 3.4 µM (inactive) in the experiment on SR; 3.2 µM (inactive) in the experiment with OVCAR-8. In addition, the GI50 was 17.3 µM (inactive) in the experiment with SNB-75; 5.74 µM (inactive) in the experiment with SF-539; 16 µM (inactive) with SK-OV-3; 15 µM (inactive) in the experiment on SF-295; 3.2 µM (inactive) in the experiment with CCRF-CEM; 16.2 µM (inactive) in the experiment on SNB-19. In addition, the GI50 in the experiment on OVCAR-5 is 10.2 µM (inactive); with A498, 19 µM (inactive); in the experiment with HT-29 it was 6.11 µM (inactive); in the experiment with PC-3, 12.5 µM (inactive); in the experiment with RPMI-8226 it was 2.88 µM (inactive); in the experiment with DU-145, 8.73 µM (inactive). Besides, the figures for the GI50 in the experiment on U-251 and with MDA-N were 3.9 µM (inactive) and 6.58 µM (inactive), respectively.
Take `CCSc1nn(-c2c3ccccc3nc3ccccc23)c(=S)s1`: the GI50 with KM12, with RXF 393, in the experiment on TK-10, in the experiment with OVCAR-3, in the experiment on SR and with OVCAR-8 was > 100 µM (inactive) each time. In addition, the GI50 in the experiment with SNB-75 is 61.9 µM (inactive); with SF-539, > 100 µM (inactive); in the experiment with SK-OV-3 it was > 100 µM (inactive); in the experiment with SF-295, > 100 µM (inactive); in the experiment on CCRF-CEM, > 100 µM (inactive); with SNB-19, > 100 µM (inactive). The GI50 in the experiment with OVCAR-5, in the experiment on A498, in the experiment on HT-29, with PC-3, in the experiment with RPMI-8226 and with DU-145 was > 100 µM (inactive) in each case. Further, the GI50 with U-251 and in the experiment on MDA-N was > 100 µM (inactive) in each case.

These data come from ChEMBL document CHEMBL1201862, “PubChem BioAssay data set” (2004).
